Source: patent US8541653B2, “Transformation of soybean” (BASF Plant Science GmbH, priority 2004, dated 2013)
“And” between values parts separate entries of the source, which are not always exact repeats. Equal values may be shown once.

Key:
Type in all cases: cell-based, soybean
[1] = test system: axillary meristem explants; assay: Regeneration capacity of axillary meristem explants on shoot initiation medium with BAP or TDZ; details: three weeks on shoot induction medium
Description: Cultivar Jack was used in both growing conditions tested. For in vitro donor material, sterile seeds were sown in a Plantcon™ (SIGMA) containing ½ MS salts and 2% sucrose pH 5.7. Seedlings were maintained at 25° C. 16/8 hours (light/dark) photoperiod, at a light intensity between 40 to 70 μM m^−2 s^−1. For greenhouse donor plants, seeds were sown on Metromix™ and grown in the greenhouse at 25° C. and 16 hour photoperiod. Greenhouse tissues were excised from the plant after 3 weeks. For greenhouse materials, the tissues were surface sterilized by immersion on a solution containing 5% Tween 20, followed by immersion in 70% (v/v) ethanol for 2 min then washed for 10 min in 3.5% (v/v) sodium hypochlorite solution and finally rinsed 3 times in sterile water. For in vitro donor material, no further sterilization was needed. Axillary meristem explants were placed basipetal into shoot initiation medium containing full strength MS salts and B5 Gamborg's vitamins amended with either 5 μM BAP or 2 mg/L (9.1 μM) TDZ. […]

[2] = test system: explants from the cultivar L00106CN; assay: GUS (+) foci on explants infected with AGL1 carrying three binary vectors, with L-cysteine; details: 400 mg/L (3.3 mM) L-cysteine, AGL1, 10 days post-infection
Description: Seed germination, propagation, A. tumefaciens and axillary meristem explant preparation, and inoculations were done as previously described. In the first experiment, three A. tumefaciens strains, MP90, LBA4404 and AGL1, containing the binary vector pBPSMM192b (SEQ ID NO: 2) were compared. The infected propagated axillary meristems with the 3 A. tumefaciens strains were removed from the co-cultivation media after 3 days and GUS stained 10 days after inoculation.
In a separate experiment, GUS expression was evaluated on explants from the cultivar L00106CN 10-days after infection with the Agrobacterium strain AGL1 containing the binary vectors pBPSLM003 [LB-OCSt-bar-pMAS::pSuper-gusINT-NOSt-RB] (SEQ ID NO: 3), pBPSMM192a [LB-NOSt-gusINT-pSuper::AtAhast-AtAhas-pAtAhas-RB], or pBPSMM192b [LB-pSuper-gusINT-NOSt::AtAhast-AtAhas-pAtAhas-RB] (SEQ ID NO: 2). The backbone sequence of pBPSLM003 (SEQ ID NO: 3) is different of that in pBPSMM192a and b (SEQ ID NO: 2). The vector pBPSMM192a [LB-NOSt-gusINT-pSuper::AtAhast-AtAhas-pAtAhas-RB is distinguished from the vector pBPSMM192b (SEQ ID NO: 2) by the orientation of the pSuper-gusINT-NOSt expression cassette, which is in reverse orientation.
Explants were also evaluated for GUS expression on explants that had been co-cultivated with or without 400 mg/L (3.3 mM) L-cysteine in the solid co-cultivation medium. Twenty explants of each treatment were prepared for each repetition, a total of 2 repetitions in this experiment. GUS expression was scored 10-days-post initial infection.

[3] = test system: leaf explants; assay: Callus/shoot pad regeneration of leaf explants after co-cultivation on CCM with thiol compounds (Example 8, experiment 1); details: L-cysteine levels over 400 mg/L (3.3 mM) in CCM
Description: (§1) In both experiments, soybean cultivar (e.g., Jack) and the Agrobacterium tumefaciens strain AGL1 containing the binary plasmid pBPSEW008 (SEQ ID NO: 1) was used. The binary plasmid contains nosP-bar-nosT and pUBI-gusINT-nosT. The leaf explants and Agrobacterium were prepared as described earlier. The final Agrobacterium OD600 used for all experiments was 0.5. In the first experiment, two repetitions were made for which the following conditions were tested, • (1) addition of one of five thiol combinations added to CCM (no thiols, 100 mg/L L-cysteine (0.825 mM), 400 mg/L L-cysteine (3.3 mM), 1000 mg/L L-cysteine (8.25 mM), or 1 mM sodium thiolsulfate+1 mM DTT+ 1000 mg/L L-cysteine (8.25 mM)), • (2) 3, 4, or 5 day co-cultivation at 25° C., and • (3) incubation in the dark or under 100 μE/m2s cool white light under a 16 light/8 dark light regime. Ten explants were prepared for each treatment. The explants were grown on SIM medium for 2 weeks after which time the percent of explants developing a callus/shoot pad were recorded.

[4] = test system: propagated axillary meristems (cultivar Jack); assay: GUS expression on propagated axillary meristem explants co-cultivated with L-cysteine; details: for frequency of propagated axillary meristems showing GUS(+) foci, Day3: AGL1
Description: Explant preparation: Seeds of variety Jack were surface sterilized by exposure to 70% ethanol for 6 min then immersed in a solution that contained 25% commercial bleach (NaOCl) and 0.1% Tween 20 and stirred at 200 rpm for 20 min. Seeds were rinsed 4 times in sterile water. Germination was carried out for 7 day in the dark at 25° C. The root and half of both cotyledons were removed from the seven-day-old seedlings and imbedded into propagation media on 150×20 mm Petri plates. Plates were sealed with Parafilm™ and placed in a culture room at 25° C. in the light for 2 to 5 weeks.
A. tumefaciens preparation and explant inoculation: A. tumefaciens strain AGL1 carrying the binary vector pBPSMM192b [LB-pSuper-gusINT-NOSt::AtAhast-AtAhas-pAtAhas-RB] (SEQ ID NO: 2) was used. A single colony was used to inoculate 25 to 30 ml LB media containing the appropriate antibiotics. Flasks were shaken on an orbit shaker (220 rpm) at 28° C. for 24 to 36 hours the OD600 reached 0.8 to 1.0. The Agrobacterium was pelleted by centrifugation at 3500 rpm for 8 to 10 min. The bacterial cells were re-suspended in liquid co-cultivation media containing 200 μM acetosyringone. Once cut, the propagated axillary meristem explants were immediately immersed in the A. tumefaciens suspension and remained for 30 minutes. Infected tissues were then transferred either to a vacuum chamber (25-30 mm Hg) for 5 min or placed directly on co-cultivation media. Before transferring onto cultivation medium, explants were blotted dry on sterile filter paper. The treatment tested was the addition of 0, 400, or 800 mg/L L-cysteine into the solid co-cultivation media (0, 3.3, or 6.6 mM, respectively). Co-cultivation was carried out in the dark for 3 days at 25° C. Vacuum infiltration results in an increase of transformation efficiency in protocols which were performed without cysteine-supplementation, but has no significant effect on protocols which were performed with cysteine-supplementation. GUS histochemical assay: Propagated axillary meristem explants infected with A. tumefaciens strain AGL1 were removed from the co-cultivation media after 3 days and stained with Gus overnight at 37° C. Remaining explants were transfer to shoot induction media containing 500 mg/L Timentin™. Gus histochemical assays were also performed at 10 and 45 days after inoculation. Results: After 3 days co-cultivation, the frequency of explants with GUS^+ foci increased from 2.5% to 45 and 63% by the addition of 800 (6.6 mM) or 400 mg/L (3.3 mM) L-cysteine, respectively, into the solid co-cultivation medium. […] The increases in GUS staining were also seen 10 and 45 days after co-cultivation (Table 10).

[5] = test system: leaf explants; assay: Transient GUS expression on leaf explants after co-cultivation on CCM with thiol compounds (Example 8, experiment 2); details: for Entire: explant with GUS (+) foci: entire explant immersed; for Dip: explant with GUS (+) foci: petiole end dipped
Description: as §1, with “regime. In the second experiment, explants were prepared and subjected to the above treatments except all leaf explants were co-cultivated for 5 days and either the entire ex-plant was immersed into the Agrobacterium/CCM suspension for 10 minutes or the cut petiole end of the explant dipped.” for “regime.”, “entirely immersed per treatment and 4” for “prepared for each treatment. The”, “dipped per treatment. All explants were GUS-stained immediately” for “grown on SIM medium for 2 weeks”, “co-cultivation.” for “which time the percent of explants developing a callus/shoot pad were recorded.”

[6] = 100 mg/l Cys in CCM, Light, 5 days co-cultivation

For `c1ccc(CNc2ncnc3nc[nH]c23)cc1` [BAP, 6-benzylaminopurine], the “Mean # of shoots per explant” value ([1]; Greenhouse plant, BAP 5 uM) was 0.20 and the “Mean # of shoots per explant” value ([1]; In vitro plant, BAP 5 uM) was 1.97.

`N[C@@H](CS)C(=O)O` [L-cysteine] was tested, and the “frequency of GUS (+) foci on explants, pBPSLM003” value [2] was 85%, the “frequency of GUS (+) foci on explants, pBPSMM192a” value [2] was 77% and the “frequency of GUS (+) foci on explants, pBPSMM192b” value [2] was 95%. The “effect on explant tissue” value [3] was “tissue death”, the “frequency of propagated axillary meristems showing GUS(+) foci, Day 10” value ([4]; 400 mg/L L-cysteine) was 90.0% and the “frequency of propagated axillary meristems showing GUS(+) foci, Day 45” value ([4]; 400 mg/L L-cysteine) was 22.5%. The “frequency of propagated axillary meristems showing GUS(+) foci, Day3” value ([4]; 400 mg/L L-cysteine in solid co-cultivation medium) was 63% and 65.0%, the “frequency of propagated axillary meristems showing GUS(+) foci, Day 10” value ([4]; 800 mg/L L-cysteine) was 72.5% and the “frequency of propagated axillary meristems showing GUS(+) foci, Day 45” value ([4]; 800 mg/L L-cysteine) was 7.5%. For the same compound, the “frequency of propagated axillary meristems showing GUS(+) foci, Day3” value ([4]; 800 mg/L L-cysteine in solid co-cultivation medium) was 45% and 47.5%, the “browning and tissue necrosis of explants” value ([4]; compared with explants not exposed to L-cysteine) was “less browning and tissue necrosis” and the “Entire: explant with GUS (+) foci” value [5, 6] was 6/10. For the same compound, the “Dip: explant with GUS (+) foci” value [5, 6] was 0/4, the “Entire: explant with GUS (+) foci” value ([5]; 100 mg/l Cys, Dark) was 7/10 and the “Dip: explant with GUS (+) foci” value ([5]; 100 mg/l Cys, Dark) was 0/4. For the same compound, the “Entire: explant with GUS (+) foci” value ([5]; 400 mg/l Cys, Dark) was 9/10, the “Dip: explant with GUS (+) foci” value ([5]; 400 mg/l Cys, Dark) was 3/4 and the “Entire: explant with GUS (+) foci” value ([5]; 400 mg/l Cys, Light) was 9/10. For the same compound, the “Dip: explant with GUS (+) foci” value ([5]; 400 mg/l Cys, Light) was 1/4, the “effect on explant tissue” value ([5]; 1000 mg/L L-cysteine in CCM) was “significant bleaching” and the “Entire: explant with GUS (+) foci” value ([5]; 1000 mg/l Cys, Dark) was 3/10. The “Dip: explant with GUS (+) foci” value ([5]; 1000 mg/l Cys, Dark) was 0/4, the “Entire: explant with GUS (+) foci” value ([5]; 1000 mg/l Cys, Light) was 3/10 and the “Dip: explant with GUS (+) foci” value ([5]; 1000 mg/l Cys, Light) was 1/4.

`O=C(Nc1ccccc1)Nc1cnns1` [TDZ] was tested, and the “Mean # of shoots per explant” value ([1]; Greenhouse plant, TDZ 9.1 μM) was 0.32 and the “Mean # of shoots per explant” value ([1]; In vitro plant, TDZ 9.1 μM) was 0.74.
